Results reported in patent US12169196B2, “Human iPSC-based drug testing platform for muscular dystrophy” (The Johns Hopkins University, priority 2019, dated 2024).

Legend:
mdx^5cv mice [1] = experiment: Treadmill running; assay type: in vivo, mouse; conditions: 1344 h
Procedure: (§1) All animal experiments were approved by the Institutional Animal Care and Use Committee (IACUC) of The Johns Hopkins University, School of Medicine (Baltimore, Maryland). Mdx^5cv (B6Ros.Cg-Dmdmdx-5Cv/J) were obtained from The Jackson Laboratory. Mice were maintained in a 12-h light cycle (7 am-7 pm) with ad libitum access to food and water. […] Ginsenoside Rd was suspended in saline containing 10% 1,3-propanediol as vector.
(§2) Forelimb grip strength was measured as maximal tensile force using a computerized force transducer (Grip Strength Meter, Bioseb). Five measurements were performed for each animal and the maximum value was used for the analysis. Treadmill testing was performed using a motor-driven treadmill (Columbus Instruments). Prior to the test day, acclimatization was performed 5 times over a period of 2 weeks at 10 m/min. On the test day, mice ran at 5 m/min for 5 min (warm up) and the speed was increased 1 m/min every min up to 10 m/min. Mice were considered exhausted when they sat for more than 10 sec on a shock pad for the third time.

p21 (WAF1/CIP1) = experiment: Western blot of p21 protein expression in D2 myoblasts; assay type: cell-based, human; conditions: ginsenoside 25 μM or FLT3 recombinant protein 100 ng/ml, 30 min
Procedure: FIG. 3A: Top pathways selected by ingenuity pathway analysis of microarray result from ginsenoside Rd and fenofibrate-treated D2 myoblasts for 24 hours. Absolute z-score values above 2 were highlighted in red. FIGS. 3B and 3D: Quantification of western blot of p21 protein expression in D2 myoblasts treated with ginsenoside (25 μM), FLT3 recombinant protein (100 ng/ml) or DMSO for 30 min, n=4, *P≤0.05. FIG. 3C, 3E: Quantification of western blot of phosphorylated ERK 1/2 (p-ERK 1/2) in D2 myoblasts treated with ginsenoside (25 μM), FLT3 recombinant protein (100 ng/ml) or DMSO for 30 min, n=4, *P≤0.05. […] (Data=Mean±SEM, FIGS. 3D, 3E: one-way ANOVA with Dunnett's multiple comparison test with DMSO negative control, FIG. 3G: one-way ANOVA with Tukey's multiple comparison test).
Whole-cell extracts were prepared by lysing cells on plate with RIPA buffer (CST) supplemented by proteinase inhibitor and phosphatase inhibitor cocktail (CST). Western blotting was performed according to the standard protocol using precast NuPAGE (4-12%) Bis-Tris gel (Invitrogen). Protein transfer was performed with the Bio-Rad turbo or wet/tank blotting system. […] Membranes were then incubated with a secondary IRDye 800 conjugated anti-rabbit IgG, or Alexa Fluor 680 anti-mouse IgG and proteins were visualized and quantified using the LI-COR Odyssey Infrared Imaging System (LI-COR). […]

MEF2C = MEF2C protein expression by Western blot and immunocytochemistry in D2 myoblasts; assay type: cell-based, human
Source text: FIG. 2C: Representative image of ginsenoside Rd-treated myoblasts labeled by MyHC. FIG. 2E Cell average length dose-response curve of ginsenoside Rd (FIGS. 2E-2F) Western blot quantification of MEF2C protein level post Saponin Q. and ginsenoside Rd treatment alongside healthy hiPSC derived myoblasts control and DMSO negative controls, *P 5 0.05, n=3. FIG. 2G: Quantification of MEF2C expressing nuclei of saponin Q. and ginsenoside Rd-treated D2 myoblasts, n=3, *P 5 0.05. (Data=Mean±SEM, one-way ANOVA with Dunnett's multiple comparison test with DMSO negative control).
Whole-cell extracts were prepared by lysing cells on plate with RIPA buffer (CST) supplemented by proteinase inhibitor and phosphatase inhibitor cocktail (CST). Western blotting was performed according to the standard protocol using precast NuPAGE (4-12%) Bis-Tris gel (Invitrogen). Protein transfer was performed with the Bio-Rad turbo or wet/tank blotting system. Nitrocellulose membranes were incubated with primary antibodies overnight at 4° C. Membranes were then incubated with a secondary IRDye 800 conjugated anti-rabbit IgG, or Alexa Fluor 680 anti-mouse IgG and proteins were visualized and quantified using the LI-COR Odyssey Infrared Imaging System (LI-COR). Primary antibodies applied in this study were all purchased from Cell Signaling Technology except for the MEF2C antibody, which was from Sigma.

ERK1/2 = experiment: Western blot of phosphorylated ERK 1/2 in D2 myoblasts; assay type: cell-based, human; conditions: ginsenoside 25 μM or FLT3 recombinant protein 100 ng/ml, 30 min
Procedure: Whole-cell extracts were prepared by lysing cells on plate with RIPA buffer (CST) supplemented by proteinase inhibitor and phosphatase inhibitor cocktail (CST). […] Protein transfer was performed with the Bio-Rad turbo or wet/tank blotting system. Nitrocellulose membranes were incubated with primary antibodies overnight at 4° C. Membranes were then incubated with a secondary IRDye 800 conjugated anti-rabbit IgG, or Alexa Fluor 680 anti-mouse IgG and proteins were visualized and quantified using the LI-COR Odyssey Infrared Imaging System (LI-COR). Primary antibodies applied in this study were all purchased from Cell Signaling Technology except for the MEF2C antibody, which was from Sigma.

FLT3 signaling pathway = conditions: 5 μM, 24 h
Source text: Triplicate samples were used in microarray analysis. […] RNA was isolated using TRIzol (Invitrogen Life Technologies, Carlsbad, CA) followed by purification and DNase digestion using RNeasy mini kits (Qiagen, Venlo, Netherlands) according to manufacturer's instructions. […] Generation of sense strand cDNA from purified total RNA was followed by second strand synthesis, in vitro transcription cDNA synthesis, and single stranded cDNA synthesis and RNA hydrolysis. Fragmentation and labelling were performed according to manufacturer's instructions (GeneChip WT Plus reagent kit, Affymetrix, Santa). RNA extraction and qPCR were performed according to previous protocols, and primers are included in Table 1. The microarray data has been deposited in NCBI's Gene Expression Omnibus database and is accessible through the GEO series accession number GSE121023.

mdx^5cv mice [2] = experiment: Forelimb grip strength; assay type: in vivo, mouse; conditions: 8 weeks treatment
Procedure: as §1, §2

mdx^5cv mice [3] = experiment: Masson's trichrome fibrosis in diaphragm muscle; assay type: in vivo, mouse; conditions: ip, 10 mg/kg, 1344 h
Source text: as §1
(§3) Gastrocnemius, tibialis anterior, and diaphragm muscles were embedded in OCT, frozen in isopentane, and cross-sectioned (˜2-10 μm thickness). The sections were also stained with DAPI to visualize nuclei. In mice where Evans blue dye (EBD, 10 mg/ml) was used to evaluate membrane damage, EBD was injected at 0.05 ml/10 g intraperitoneally, 24 hours before sacrificing the mice. To evaluate EBD staining, gastrocnemius muscle sections were fixed with acetone and imaged with fluorescence microscopy. The area of EBD as a percentage of total area was calculated. To evaluate the number of central nucleated fibers, sections of the tibialis anterior muscle were stained with hematoxylin and eosin. Central nucleated fiber number was counted and analyzed against total fiber number. Diaphragm sections (10 μm) were stained with Masson's trichrome to determine collagen content. The stained areas were quantified against the total area.

mdx^5cv mice [4] = experiment: Quadriceps strength and susceptibility to injury; assay type: in vivo, mouse
Source text: as §1
In vivo muscle physiology. Quadriceps strength (maximal isometric torque) and susceptibility to injury were assessed in vivo as described (69, 70). Briefly, animals were anaesthetized with 3-5% isoflurane and placed in a supine position. The thigh was stabilized and the ankle was secured on to a lever arm. The knee was aligned with the axis of the stepper motor (model T8904, NMB Technologies, Chatsworth, CA, USA) and a torque sensor (QWFK-8M, Sensotec, Columbus, OH, USA), and the femoral nerve was stimulated via subcutaneous needle electrodes. A custom program based on commercial software (LabView version 8.5, National Instruments, Austin, TX, USA) was used to synchronize contractile activation and the onset of forced knee flexion. The position of the leg that results in optimal muscle length has been previously described and maximum isometric torque was measured in Newton-millimeters (Nmm). Injury was induced by 15 forced lengthenings (knee flexion) superimposed onto maximal quadriceps contractions through a 40-100 degree arc of motion (with full knee extension considered 0 deg) spaced 1 min apart. Loss in maximal isometric torque was measured 5 min after the last lengthening contraction. Since the knee position, lever arm, and moment arm of the muscle are unchanged between tests, maximal isometric torque reflects maximal isometric muscle force.

mdx^5cv mice [5] = experiment: Evans blue staining and central nucleated fiber histology; assay type: in vivo, mouse; conditions: 8 weeks treatment
Source text: as §1, §3

CC(C)=CCC[C@](C)(O[C@@H]1O[C@H](CO)[C@@H](O)[C@H](O)[C@H]1O)[C@H]1CC[C@]2(C)[C@@H]1[C@H](O)C[C@@H]1[C@@]3(C)CC[C@H](O[C@@H]4O[C@H](CO)[C@@H](O)[C@H](O)[C@H]4O[C@@H]4O[C@H](CO)[C@@H](O)[C@H](O)[C@H]4O)C(C)(C)[C@@H]3CC[C@]12C [ginsenoside Rd]
improvement of endurance on treadmill running (mdx^5cv mice [1]): no effect
levels of p21 (p21 (WAF1/CIP1)): Increased levels of p21
levels of MEF2C protein expression (Western blot) (MEF2C; vs DMSO): increased
MEF2C expressing cells (immunocytochemistry) (MEF2C; vs vector control): more MEF2C expressing cells
ERK1/2 activation (p-ERK 1/2) (ERK1/2): activated
ingenuity pathway analysis z-score, FLT3 signaling pathway (FLT3 signaling pathway): > 2
improvement of forelimb grip strength (mdx^5cv mice [2]): 19%
reduction of levels of fibrosis in diaphragm (mdx^5cv mice [3]): 29%
loss in muscle force after contraction-induced injury, quadriceps (mdx^5cv mice [4]): 56±4.8%
maximal isometric force generated by quadriceps muscle (mdx^5cv mice [4]; compared with sham control): no significant difference
number of Evans blue dye positive fibers (mdx^5cv mice [5]; gastrocnemius): not significantly different
central nucleated fibers (mdx^5cv mice [5]; tibialis anterior): not significantly different
